In patent publication US20260048028A1, “Methods of Use for Disulfiram and Metabolites Thereof” (PS Therapy, Inc., priority 2022, published 2026):

Columns and labels:
[1] = test system: IL-8 mRNA; assay: IL-8 mRNA levels in Aspergillus flavus infected human corneal epithelial cells; type: cell-based; conditions: HCE cells infected with A. flavus spores
Protocol: 3 sets of human corneal epithelial (“HCE”) cells were plated and assayed for IL-8 mRNA levels as a control. 9 sets of HC cells were then infected with […] of Aspergillus flavus spores. 16 hours post infection the cells were assayed for IL-8 mRNA levels. 3 sets of HCE cells were then administered DSF in DMSO. Several hours following administration of each, IL-8 mRNA levels were assayed.
3 sets of HCE cells were plated and assayed for IL-8 mRNA levels as a control. 9 sets of HC cells were then infected with […] of Aspergillus flavus spores. 16 hours post infection the cells were assayed for IL-mRNA levels. 3 sets of HCE cells were then each administered NaDDC in water. Several hours following administration of each, IL-8 mRNA levels were assayed.

[2] = test system: IL-6 mRNA; assay: IL-6 mRNA levels in HCE cells under hyperosmolarity; type: cell-based, human; conditions: 400 milliosmoles, 6 hours post hyperosmolarity induction, −control 290 milliosmoles
Protocol: Sets of HCE cells were plated in iso-osmotic solutions (290 milliosmoles) […] and assayed for IL-8 and IL-6 mRNA levels as a control. Sets of HC cells were subjected to hyperosmolarity conditions (i.e. placed in a solution having an osmolarity of 400 milliosmoles) either with or without NaDDC. 6 hours post hyperosmolarity induction the cells were assayed for IL-mRNA levels.

[3] = test system: C57BL/6 mice; assay: Alkali-burn injury in mice, slit-lamp scoring of corneal opacity and neovascularization; type: in vivo; conditions: topical three times daily for 7 days (NaDDC 300 μM); for corneal opacity mean score: grading scale 0 to 4, day 7 after alkali burn; for neovascularization score: scale 0 to 3, day 7 after alkali burn
Protocol: C57BL/6 mice were divided into three groups, control group 1 (n=6), group 2 (n=6) and group 3 (n=3). Each group consisted of mice with their left eye (“LE”) left undisturbed as a control, while the right eye (“RE”) of all mice in each group was subjected to alkali burn. Prior to inducing alkali burn, mice were anesthetized using an injection of an anesthetic cocktail containing ketamine (20 mg/ml) and xylazine (4 mg/ml) at a dose of approximately […] per 25 g mouse. Topical analgesia was provided using proparacaine hydrochloride (0.5%) on the corneal surface. A round filter paper piece (˜2 mm in diameter) was soaked in a 0.5 M NaOH solution. The NaOH-soaked filter paper was gently placed on the central cornea of the RE for precisely 30 seconds, generating an acute alkali burn. Following the removal of the filter paper, the RE was flushed gently with 10 ml of 1×PBS using a 10 ml syringe to ensure thorough removal of residual NaOH. Immediately after the eye flush, the treatment application was initiated for Group 2 and Group 3 mice. Group 1 was left untreated. For Group 2, a drop of 300 μM NaDDC was topically applied to the cornea of the RE. For Group 3, the RE was topically treated with commercially available prednisolone. The treatment was repeated three times daily for a duration of 7 days.
On the 7th day following the alkali burn, corneal images were captured using slit microscopy to monitor changes in corneal opacity and neovascularization. The degree of corneal injury was evaluated and scored in a blinded manner by trained observers. Corneal opacity was evaluated using a grading scale ranging from 0 to 4, where 0 represented a completely clear cornea, 1 indicated slight haziness with the iris and pupil easily visible, 2 denoted slight opacity with detectable iris and pupil, 3 indicated significant opacity with difficulty in detecting pupils, and 4 represented complete opacity with no view of the pupil. The degree of neovascularization was scored on a scale of 0 to 3, with 0 indicating no new vessels, 1 representing new vessels present at the corneal limbus, 2 denoting new vessels extending from the corneal limbus toward the corneal centre, and 3 indicating new vessels spanning the entire corneal centre. At the end of the treatment period, mice from control group 1 and NaDDC treated group 2 were sacrificed and the eyes were enucleated for further analysis, including RT-PCR studies, to investigate the expression levels of tumor necrosis factor alpha (“TNFα”), gasdermin D (“GSDMD”), intercellular adhesion molecule 1 (“ICAM1”) and transforming growth factor beta 1 (“TGFβ1”).

[4] = test system: tumor necrosis factor alpha (TNFα); assay: Alkali-burn injury in mice, RT-PCR expression of TNFα in eyes; type: in vivo; conditions: RT-PCR of enucleated eyes after 7 days of topical 300 μM NaDDC three times daily
Protocol: (§1) C57BL/6 mice were divided into three groups, control group 1 (n=6), group 2 (n=6) and group 3 (n=3). Each group consisted of mice with their left eye (“LE”) left undisturbed as a control, while the right eye (“RE”) of all mice in each group was subjected to alkali burn. Prior to inducing alkali burn, mice were anesthetized using an injection of an anesthetic cocktail containing ketamine (20 mg/ml) and xylazine (4 mg/ml) at a dose of approximately […] per 25 g mouse. Topical analgesia was provided using proparacaine hydrochloride (0.5%) on the corneal surface. A round filter paper piece (˜2 mm in diameter) was soaked in a 0.5 M NaOH solution. […]
(§2) On the 7th day following the alkali burn, corneal images were captured using slit microscopy to monitor changes in corneal opacity and neovascularization. The degree of corneal injury was evaluated and scored in a blinded manner by trained observers. Corneal opacity was evaluated using a grading scale ranging from 0 to 4, where 0 represented a completely clear cornea, 1 indicated slight haziness with the iris and pupil easily visible, 2 denoted slight opacity with detectable iris and pupil, 3 indicated significant opacity with difficulty in detecting pupils, and 4 represented complete opacity with no view of the pupil. […]

[5] = test system: gasdermin D (GSDMD); assay: Alkali-burn injury in mice, RT-PCR expression of GSDMD in eyes; type: in vivo; conditions: RT-PCR of enucleated eyes after 7 days of topical 300 μM NaDDC three times daily
Protocol: as §1, §2

[6] = test system: intercellular adhesion molecule 1 (ICAM1); assay: Alkali-burn injury in mice, RT-PCR expression of ICAM1 in eyes; type: in vivo; conditions: RT-PCR of enucleated eyes after 7 days of topical 300 μM NaDDC three times daily
Protocol: as §1, §2

[7] = test system: transforming growth factor beta 1 (TGFβ1); assay: Alkali-burn injury in mice, RT-PCR expression of TGFβ1 in eyes; type: in vivo; conditions: RT-PCR of enucleated eyes after 7 days of topical 300 μM NaDDC three times daily
Protocol: as §1, §2

[8] = DSF in DMSO given 16 hours post infection
[9] = NaDDC in water given 16 hours post infection

SMILES	IL-8 mRNA levels (% change from uninfected) [1, 8] [%]	IL-8 mRNA levels (% reduction from water) [1, 8] [%]	IL-8 mRNA levels (% increase from uninfected) [1, 9] [%]	IL-8 mRNA levels (% reduction from water) [1, 9] [%]	IL-6 mRNA levels (% increase from −control) [2] [%]	corneal opacity mean score [3]	neovascularization score [3]	expression level of TNFα, % of untreated control group [4] [%]	GSDMD expression, % of untreated control group [5] [%]	ICAM1 expression, % of untreated control group [6] [%]	TGFβ1 expression, % of untreated control group [7] [%]
CCN(CC)C(=S)SSC(=S)N(CC)CC [DSF, 1,1′-disulfanediylbis(N,N-diethylmethanethioamide), reference compound]	21.2	88.5	–	–	–	–	–	–	–	–	–
CCN(CC)C(=S)[S-].[Na+] [NaDDC, sodium;N,N-diethylcarbamodithioate]	–	–	10.5	85.19	100	0.83	0	8	42	5	28
C[C@]12C=CC(=O)C=C1CC[C@@H]1[C@@H]2[C@@H](O)C[C@@]2(C)[C@H]1CC[C@]2(O)C(=O)CO [prednisolone, reference compound]	–	–	–	–	–	2.67	0	–	–	–	–
